Laboratory results reported in patent publication US4044043A, “Derivatives of 9-oxo-13-trans-prostenoic acid esters” (American Cyanamid Company, priority 1975, dated 1977).
Values after ≈ are worked out from the molar mass of the structure shown. Like-named read-outs stand apart in the source and are kept apart here.

Legend:
[1] = test system: bronchospasms elicited by histamine; experiment: Bronchodilator Activity (Konzett Assay) against histamine; format: in vivo, guinea pigs; details: Cavia porcellus; three logarithmic cumulative intravenous doses
Experimental: (§1) Bronchodilator activity was determined in guinea pigs against bronchospasms elicited by intravenous injections of 5-hydroxytryptamine, histamine or acetylcholine by the Konzett procedure. [See J. Lulling, P. Lievens, F. El Sayed and J. Prignot, Arzeneimittel-Forschung, 18, 995 (1968)]. In Table IIIC which follows bronchodilator activity for representative compounds of this invention against one or more of the three spasmogenic agents is expressed as an ED50 determined from the results obtained with three logarithmic cumulative intravenous doses.

[2] = test system: dl-PGE1-induced contraction of gerbil colon; experiment: Inhibition of dl-PGE1-Induced Contraction of Gerbil Colon (prostaglandin antagonist action); format: cell-based, gerbils (Meriones unguiculatus); details: Meriones unguiculatus, 1 min
Experimental: The compounds of this invention are also useful as antagonists of prostaglandin action and accordingly they are potentially useful as anti-inflammatory agents, and as agents for the treatment of periodontal diseases and diarrhea. Testing for prostaglandin antagonist action is carried out in the following manner. Sections of ascending colon, approximately 20 mm. long, from mature male gerbils (Meriones unguiculatus) weighing 70-80 g. were mounted in De Jalon's solution (154 mM NaCl; 5.95 mM NAHCO3; […], 5.64 mM KC and .27 mM CaCl2 in 20 ml. tissue baths) (L and K Glass Co., Lynnhurst, N.J.). The medium was continually gassed with a mixture of 95% 02 -5% CO2 and maintained at 37° C. The tissues were suspended via silk suture threads between a glass hook at the base and a model FT .03C force displacement transducer (Grass Instruments, Quincy, Massachusetts). Contractions were recorded on a Poly-Viso ® polygraph (Sanborn Co., Cambridge, Massachusetts). After mounting, tissues were allowed to stabilize 15-20 minutes during which time adjustments were made to establish and maintain a 0.5 g. resting tension on the muscle. Thereafter, test cycles of 3-5 minutes were begun and consisted of a 1 minute exposure to the potential antagonist, if called for, followed by a 1 minute exposure to the prostaglandin agonist, a 15-30 sec. washout and a recovery period of 2-2.5 minutes. […] During the washout period, the tissue was rinsed with a measured amount equalling 8 volumes of medium. Muscle relaxation was virtually complete by the end of the washout period. During preliminary tests it was noted that a final concentration of 200 ng./ml. of a racemic mixture of synthetic prostaglandin-E1 (dl-PGE1) produced maximal muscle contraction. Following stabilization, muscles were exposed 2 to 3 times to this concentration of dl-PGE1 until a consistent response was recorded. Once maximal responses were established, test cycles with potential antagonists were commenced and were followed alternately with prostaglandin-only test cycle. […] The contraction of the muscle induced by 200 ng./ml. dl-PGE1 following exposure to a given concentration of the potential antagonist was always compared to the response of the tissue to that level of dl PGE1 in the immediately preceding cycle. Using a series of potential antagonist concentrations, an approximate ID50 (concentration at which 50% inhibition was observed) was established. The compounds were also tested against a sub-maximal prostaglandin challenge (20 ng./ml. dl-PGE1) in which case activity is reported in terms of a 50% inhibition of maximum response.

[3] = test system: bronchospasms elicited by acetylcholine; experiment: Bronchodilator Activity (Konzett Assay) against acetylcholine; format: in vivo, guinea pigs; details: Cavia porcellus; three logarithmic cumulative intravenous doses
Experimental: as §1

[4] = test system: bronchospasms elicited by 5-hydroxytryptamine; experiment: Bronchodilator Activity (Konzett Assay) against 5-hydroxytryptamine; format: in vivo, guinea pigs; details: Cavia porcellus; three logarithmic cumulative intravenous doses
Experimental: as §1

[5] = test system: Mycobacterium smegmatis ATCC 606; experiment: agar-dilution streak-plate antimicrobial assay; format: cell-based; details: Mycolicibacterium smegmatis, ATCC606, read-out: Minimal inhibitory conc. (6)
Experimental: The novel compounds of the present invention are also useful as antimicrobial agents. […] In this assay, the compounds to be tested are made up to contain 2.5 mg. of test compound per milliliter of solution. Observing sterile techniques, two-fold serial dilution are made of each test solution. One milliliter of each of the original solutions and of each of the serial dilutions is then added to 9 ml. of warm sterile nutrient agar capable of supporting growth of the bacterial test cultures. A second set of agar dilutions is prepared identical to the first except that the nutrient agar is designed to support the growth of the fungal test cultures. […] The test bacteria and yeast-like fungi are prepared for use by growing in broth overnight. The spores of the filamentous fungi are harvested from mature agar slant cultures and are suspended in sterile physiological saline solution. A loopful of each of the resulting live suspensions is then, still employing sterile techniques, streaked upon the surfaces of each of the agar plates and the resulting streaked plates are then incubated. After an appropriate period of time, each of the streaks on each of the plates is inspected visually and the extent, if any, of bacterial or fungal growth is noted. The minimal inhibitory concentration (expressed in micrograms per milliliter) is defined as the concentration of test compound causing complete inhibition of growth of any particular organism. In a representative operation, and merely by way of illustration, the minimal inhibitory concentration of typical compounds of the present invention against a variety of test organisms as determined in the above-described assay are set forth in Tables II and III below: […]

diastolic blood pressure = experiment: Prostaglandin-like hypotensive activity in anesthetized rats (minimal dose for about 10 mm. decrease in diastolic blood pressure); format: in vivo, Male Wistar strain rats; details: Rattus norvegicus; intravenous; decrease of about 10 mm. in diastolic blood pressure
Experimental: This procedure is a modification of the technique described by Pike et al., Prostaglandins, Nobel Symposium 2, Stockholm, June, 1966; p, 165.
Male Wistar strain rats (Royal Hart Farms) averaging approximately 250 grams in weight were fastened to rat boards in a supine position by means of canvas vests and limb ties. The femoral area was infiltrated subcutaneously with lidocaine and the iliac artery and vein exposed and cannulated. Arterial blood pressure (systolic/diastolic) was recorded using a Statham P23 Db pressure transducer-Offner dynograph system. To obtain a stable blood pressure, the animals were anesthetized before use with pentobarbital, 30 mg./kg. of body weight intravenously, and also were given hexamethonium bitartrate, 2 mg./kg. of body weight intravenously. The test compounds were prepared by ultrasonic dispersion in a saline-Tween 80 ® vehicle. A constant intravenous dose volume of 0.5 ml. was administered and test doses ranged from 0.1 to 10.0 mg./kg. of body weight. Increasing or decreasing doses were selected depending on the dose response obtained. In Table I below are set forth the minimal doses required to produce a decrease of about 10 mm. in diastolic blood pressure for typical compounds of the present invention.

gastric acid secretion = experiment: Inhibition of Gastric Acid Secretion (Pylorous-Ligated Rat), Shay rat procedure; format: in vivo, rats (male, CFE strain); details: 100 mg./kg. intraduodenal, read-out: % Inhibition of Control Gastric Acid Secretion
Description: The novel compounds of the present invention are also effective inhibitors of gastric acid secretion and of ulcer development in experimental animals, and thus are potentially valuable as agents for the control of gastric acid secretion and of gastric erosion and as anti-ulcer agents. Gastric acid secretion inhibitory action is usually measured by the Shay rat procedure ^(1,2) with some modifications as follows. 6 1. Shay et al., Gastroenterology, 5, 43 (1945). 6 2. Shay et al., Gastroenterology, 26, 906 (1954).
The rats (male, CFE strain) were starved for 48 hours (water was given ad libitum) to permit evacuation of stomach contents. On the morning of the experiment, under ether anesthesia, the abdominal region was shaved and a midline incision (1-1 1/2 inch) was made with a scalpel. With the help of a closed curved hemostat the duodenum was picked up. Upon getting the duodenum into view fingers were used to pull the stomach through the opening, the stomach was then gently manipulated with fingers to rid stomach of air and residual matter which were pushed through the pylorus. Two 5-inch sutures were drawn under the pyloric-duodenal puncture. A ligature, at the juncture, was formed with one of the threads. The second ligature was also formed but not tightened.
The test compound or the vehicle, usually 1 ml./100 g. body weight, were injected into the duodenum as close as possible to the first ligature. After injection the second ligature was tightened below the injection site to minimize leakage. The stomach was placed back through the opening into the abdominal cavity, the area of incision was washed with saline and the incision was closed with autoclips. (Ocasionally instead of an intraduodenal injection, animals were dosed by the oral or subcutaneous route. In the latter case, dosing was done thirty to sixty minutes before the operation).
The abdominal cavity was exposed by cutting with scissors and the esophagus close to the stomach was clamped off with a hemostat, the stomach was removed by cutting above the hemostat (the esophagus was cut) and between the two sutures. Extraneous tissue was removed, the stomach washed with saline and blotted on gauze. A slit was carefully made in the stomach which was held over a funnel and the contents were collected in a centrifuge tube. The stomach was further cut along the outside edge and turned inside out. Two ml. of water were used to wash the stomach contents into the respective centrifuge tube. The combined stomach contents and wash were then centrifuged out for 10 minutes in the International Size 2 Centrifuge (setting at 30). The supernatant was collected, volume measured and recorded, 2 drops of phenolphthalein indicator (1% in 95% ethanol) were added and the solution was titrated with 0.02N NaOH (or with 0.04N NaOH when large volumes of stomach contents were encountered) to pH 8.4 (because of usual coloring of the stomach contents, phenolphthalein was only used to permit visual indication that the end point was near) and the amount of acid present was calculated.
Compounds inducing inhibition of gastric acid secretion of 20% or more were considered active. In a representative operation, and merely by way of illustration, the results obtained with this assay with typical compounds of the present invention are given in Table IIIA.

[6] = 200 ng./ml. dl-PGE1, read-out: ID50 vs. 200 ng. of PGE1/ml.
[7] = sub-maximal challenge, 20 ng./ml. dl-PGE1, 50% inhibition of maximum response, read-out: ID50 vs. 20 ng. of PGE1/ml.

| IC50 [2, 6] [µg/mL] | MIC [5] [µg/mL] | IC50 [2, 7] [µg/mL] | SMILES | ED50 [1] [mg/kg] | ED50 [3] [mg/kg] | ED50 [4] [mg/kg] | minimal effective dose (diastolic blood pressure) [mg/kg] | inhibition in vivo at 100 mg/kg (gastric acid secretion) [%] |
| --- | --- | --- | --- | --- | --- | --- | --- | --- |
|  | 250 (≈ 678 µM) |  | CCOC(=O)CCCCCC[C@H]1C(=O)CC[C@@H]1/C=C/CCCSCC (relative stereo) [ethyl 9-oxo-18-thia-13-trans-prostenoate] |  |  |  | 2 |  |
| 15 (≈ 42.8 µM) |  | 4 to 5 (≈ 11.4 to 14.3 µM) | CCCCCC/C=C/[C@H]1CCC(=O)[C@@H]1CCCCCC(CC)C(=O)O (stereo partly drawn) [9-oxo-2-ethyl-13-trans-prostenoic acid, 2-ethyl-9-oxo-13-trans-prostenoic acid] | 7.75 | > 10 | 2.91 |  |  |
|  | 62 (≈ 184 µM) |  | CCCCC/C=C/[C@H]1CCC(=O)[C@@H]1CCCCCCC(=O)OCC (relative stereo) [ethyl 9-oxo-20-nor-13-trans-prostenoate] |  |  |  | 0.6 |  |
|  | 250 (≈ 536 µM) |  | CCOC(=O)CCCCCC[C@H]1C(=O)CC[C@@H]1/C=C/CCCC(C(=O)OCC)C(=O)OCC (relative stereo) [ethyl 20,20-dicarbethoxy-9-oxo-18,19-dinor-13-trans-prostenoate] |  |  |  | 8 | 38 |
|  | 62 (≈ 184 µM) |  | CCOC(=O)CCCCCC[C@H]1C(=O)CC[C@@H]1/C=C/CCC(C)C (relative stereo) [ethyl 17-methyl-9-oxo-19,10-dinor-13-trans-rpostenoate] |  |  |  | 10 | 21 |

More lines, now with the values behind:

| SMILES | IC50 [2, 6] [µg/mL] | MIC [5] [µg/mL] | IC50 [2, 7] [µg/mL] | ED50 [1] [mg/kg] | ED50 [3] [mg/kg] | ED50 [4] [mg/kg] | minimal effective dose (diastolic blood pressure) [mg/kg] | inhibition in vivo at 100 mg/kg (gastric acid secretion) [%] |
| --- | --- | --- | --- | --- | --- | --- | --- | --- |
| CCCCCC/C=C/[C@@H]1CCC(=O)[C@H]1CCCCSCC(=O)O (relative stereo) [9-oxo-3-thia-13-trans-prostenoic acid] | 20 (≈ 58.7 µM) |  |  | 1.24 | 2.43 | 1.56 |  |  |
| CCCCCC/C=C/[C@@H]1CCC(=O)[C@H]1CCCCCCC(=O)Oc1cccnc1 (relative stereo) [3-pyridyl 9-oxo-13-trans-prostenoate, 3'-pyridyl 9-oxo-13-trans-prostenoate] | 12 (≈ 30 µM) | 50 (≈ 125 µM) |  |  |  |  | 0.4 to 4 |  |
| CCCCCC/C=C/[C@@H]1CCC(=O)[C@H]1C/C=C\CCCC(=O)O (relative stereo) [9-oxo-5-cis,13-trans-prostadienoic acid, 9-oxo-5-cis-13-trans-prostadienoic acid] | 9 (≈ 28.1 µM) |  | 0.9 (≈ 2.81 µM) | 1.42 | 4.36 | 1.5 |  |  |
| CCCCCC/C=C/[C@H]1CC(C)C(=O)[C@@H]1CCCCCCC(=O)O (stereo partly drawn) [9-oxo-10-methyl-13-trans-prostenoic acid] |  |  |  | 0.303 | 73.2 | 1.84 |  |  |
| CCCCCC/C=C/[C@@H]1CCC(=NNc2ccc(C(=O)O)cc2)[C@H]1CCCCCCC(=O)O (relative stereo) [9-Oxo-13-trans-prostenoic acid p-carboxyphenylhydrazone] |  |  |  | 0.931 | 5.55 | 3.2 |  |  |
| CCCCCCC=CC1CCC(O)(c2ccccc2)C1CCCCCCC(=O)O (stereo not drawn) [9-hydroxy-9-phenyl-13-trans-prostenoic acid] |  |  |  | 5.27 | > 10 | 2.44 |  |  |
| C=C1CC[C@@H](/C=C/CCCCCC)[C@@H]1CCCCCCC(=O)O (relative stereo) [9-methylene-13-trans-prostenoic acid, 9-Methylene-13-trans-prostenoic acid] |  |  |  | 1.45 | > 10 | 14.1 |  |  |
| CC(C)C/C=C/[C@H]1CCC(O)[C@@H]1CCCCCCC(=O)O (stereo partly drawn) [9α/β-hydroxy-16-methyl-18,19,20-trinor-13-trans-prostenoic acid] |  |  |  | 3.47 | > 10 | > 10 |  |  |
| CCS(=O)(=O)CCC/C=C/[C@H]1CCC(=O)[C@@H]1CCCCCCC(=O)O (relative stereo) [9-oxo-18-dioxythia-13-trans-prostenoic acid] |  |  |  | 9.87 | > 10 | > 10 |  |  |
| CCCCCC/C=C/[C@@H]1CC[C@@H](O)[C@H]1CCCCCCC(=O)O (relative stereo) [9α-hydroxy-13-trans-prostenoic acid] |  |  |  | 0.268 | 2.53 | 0.559 |  |  |
